Reference: ChEMBL document CHEMBL3822442, “Synthesis and Pharmacological Characterization of Novel Glucagon-like Peptide-2 (GLP-2) Analogues with Low Systemic Clearance” (J Med Chem, 2016)
Activity calls are given as the source filed them. The calls are words filed in the database; no cut-off is given here.

Key:
[1] = target: T1, Glucagon-like peptide 1 receptor (Homo sapiens, UniProt P43220); experiment: Agonist activity at human GLP1R expressed in HEK293 cells at 30 nM after 5 hrs by luciferase reporter gene assay; assay type: cell-based
T1 sequence (P43220 whole entry): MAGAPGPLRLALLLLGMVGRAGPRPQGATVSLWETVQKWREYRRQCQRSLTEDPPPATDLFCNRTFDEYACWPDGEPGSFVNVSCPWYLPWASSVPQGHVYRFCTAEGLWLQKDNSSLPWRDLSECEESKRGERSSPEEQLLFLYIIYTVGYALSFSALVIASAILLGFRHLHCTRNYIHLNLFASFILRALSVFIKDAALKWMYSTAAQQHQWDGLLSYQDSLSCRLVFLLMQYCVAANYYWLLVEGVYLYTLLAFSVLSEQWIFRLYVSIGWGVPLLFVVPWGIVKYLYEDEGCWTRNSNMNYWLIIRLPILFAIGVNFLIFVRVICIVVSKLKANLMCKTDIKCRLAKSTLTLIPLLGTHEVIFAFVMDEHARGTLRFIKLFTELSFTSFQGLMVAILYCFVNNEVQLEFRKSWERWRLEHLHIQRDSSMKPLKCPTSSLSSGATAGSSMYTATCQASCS

[2] = target: T2, Glucagon-like peptide 2 receptor (Homo sapiens) (UniProt O95838); experiment: Potency index, ratio of compound EC50 to compound 2 EC50 for human GLP2R expressed in HEK293 cells; assay type: cell-based
T2 sequence (whole entry): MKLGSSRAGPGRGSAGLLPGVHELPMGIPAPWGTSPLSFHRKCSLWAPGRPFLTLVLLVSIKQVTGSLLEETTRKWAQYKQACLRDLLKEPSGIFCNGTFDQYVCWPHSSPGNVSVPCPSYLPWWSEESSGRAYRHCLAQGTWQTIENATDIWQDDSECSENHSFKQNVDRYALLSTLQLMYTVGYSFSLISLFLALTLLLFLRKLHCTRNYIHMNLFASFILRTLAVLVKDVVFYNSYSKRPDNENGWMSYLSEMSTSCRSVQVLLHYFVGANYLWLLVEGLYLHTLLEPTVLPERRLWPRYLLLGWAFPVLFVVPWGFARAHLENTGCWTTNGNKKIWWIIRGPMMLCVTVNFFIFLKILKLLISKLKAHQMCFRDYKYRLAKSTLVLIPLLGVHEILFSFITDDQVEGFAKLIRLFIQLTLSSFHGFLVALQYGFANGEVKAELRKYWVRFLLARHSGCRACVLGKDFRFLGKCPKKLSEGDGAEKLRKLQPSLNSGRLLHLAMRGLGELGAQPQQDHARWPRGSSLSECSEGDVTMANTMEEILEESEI

[3] = target: T1, Glucagon-like peptide 1 receptor; experiment: Agonist activity at human GLP1R expressed in HEK293 cells after 5 hrs by luciferase reporter gene assay; assay type: cell-based
HEK293 = experiment: Selectivity ratio of EC50 for human GLP1R expressed in HEK293 cells to EC50 for human GLP2R expressed in HEK293; assay type: cell-based
[4] = target: Glucagon receptor (Homo sapiens) (UniProt P47871); experiment: Agonist activity at human GCGR expressed in HEK293 cells after 5 hrs by luciferase reporter gene assay; assay type: cell-based
Glucagon receptor (Homo sapiens), sequence (P47871 whole entry): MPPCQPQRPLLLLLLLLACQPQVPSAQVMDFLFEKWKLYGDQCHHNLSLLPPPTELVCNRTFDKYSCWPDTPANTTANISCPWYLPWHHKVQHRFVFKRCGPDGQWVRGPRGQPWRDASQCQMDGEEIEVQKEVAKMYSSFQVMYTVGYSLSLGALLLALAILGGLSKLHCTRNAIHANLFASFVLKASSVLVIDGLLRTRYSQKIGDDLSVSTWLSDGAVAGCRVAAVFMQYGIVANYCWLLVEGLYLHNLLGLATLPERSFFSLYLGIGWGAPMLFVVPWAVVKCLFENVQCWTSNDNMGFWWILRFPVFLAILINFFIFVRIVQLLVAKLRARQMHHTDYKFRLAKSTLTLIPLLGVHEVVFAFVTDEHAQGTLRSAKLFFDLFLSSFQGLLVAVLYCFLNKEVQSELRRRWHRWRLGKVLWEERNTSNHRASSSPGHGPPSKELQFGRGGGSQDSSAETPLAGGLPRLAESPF

[5] = target: T3, Glucagon-like peptide 2 receptor (Homo sapiens, UniProt O95838); experiment: Agonist activity at human GLP2R expressed in HEK293 cells after 5 hrs by luciferase reporter gene assay; assay type: cell-based
T3 sequence (O95838 whole entry): T2 sequence (whole entry)

[6] = Systemic clearance in Sprague-Dawley rat at 0.2 mg/kg, iv through cassette dosing measured up to 300 mins by LC/MS/MS analysis; assay type: ADME, organism-based; settings: in vivo

Molecule: CC[C@H](C)[C@H](NC(=O)[C@H](Cc1ccccc1)NC(=O)[C@H](CC(=O)O)NC(=O)[C@H](CCCNC(=N)N)NC(=O)[C@H](C)NC(=O)[C@H](C)NC(=O)[C@H](CC(C)C)NC(=O)[C@H](CC(N)=O)NC(=O)[C@H](CC(=O)O)NC(=O)[C@H](CC(C)C)NC(=O)[C@@H](NC(=O)[C@@H](NC(=O)[C@H](CC(N)=O)NC(=O)[C@H](CCSC)NC(=O)[C@H](CCC(=O)O)NC(=O)[C@H](CC(=O)O)NC(=O)[C@H](CO)NC(=O)[C@H](Cc1ccccc1)NC(=O)[C@H](CO)NC(=O)CNC(=O)[C@H](CC(=O)O)NC(=O)[C@H](C)NC(=O)[C@@H](N)Cc1cnc[nH]1)[C@@H](C)O)[C@@H](C)CC)C(=O)N[C@@H](CC(N)=O)C(=O)N[C@@H](Cc1c[nH]c2ccccc12)C(=O)N[C@@H](CC(C)C)C(=O)N[C@H](C(=O)N[C@@H](CCC(N)=O)C(=O)N[C@H](C(=O)N[C@@H](CCCCN)C(=O)N[C@H](C(=O)N[C@H](C(=O)N[C@@H](CC(=O)O)C(=O)O)[C@@H](C)O)[C@@H](C)CC)[C@@H](C)O)[C@@H](C)CC
- Efficacy [1]: 71%

Molecule: CCCCC(NC(=O)[C@H](CCC(=O)O)NC(=O)[C@H](CC(=O)O)NC(=O)[C@H](CO)NC(=O)[C@H](Cc1ccccc1)NC(=O)[C@H](CO)NC(=O)CNC(=O)[C@H](CC(=O)O)NC(=O)CNC(=O)[C@@H](N)Cc1cnc[nH]1)C(=O)N[C@@H](CC(N)=O)C(=O)N[C@H](C(=O)N[C@H](C(=O)N[C@@H](CC(C)C)C(=O)N[C@@H](CC(=O)O)C(=O)N[C@@H](CC(N)=O)C(=O)N[C@@H](CC(C)C)C(=O)N[C@@H](C)C(=O)N[C@@H](C)C(=O)N[C@@H](CCCNC(=N)N)C(=O)N[C@@H](CC(=O)O)C(=O)N[C@@H](Cc1ccccc1)C(=O)N[C@H](C(=O)N[C@H](CC(N)=O)C(=O)N[C@@H](Cc1c[nH]c2ccccc12)C(=O)N[C@@H](CC(C)C)C(=O)N[C@H](C(=O)N[C@@H](CCC(N)=O)C(=O)N[C@H](C(=O)N[C@@H](CCCCN)C(N)=O)[C@@H](C)O)[C@@H](C)CC)[C@@H](C)CC)[C@@H](C)CC)[C@@H](C)O (stereo partly specified)
- Ratio EC50 [2]: 2
- EC50 [3]: > 1000 nM
- Ratio EC50 (HEK293): > 2300
- Activity [4]: inactive
- EC50 [5]: 0.43 nM

Molecule: CCCCC(NC(=O)[C@H](CCC(=O)O)NC(=O)[C@@H](CC(=O)O)NC(=O)[C@H](CO)NC(=O)[C@H](Cc1ccccc1)NC(=O)[C@H](CO)NC(=O)CNC(=O)[C@H](CC(=O)O)NC(=O)CNC(=O)[C@@H](N)Cc1cnc[nH]1)C(=O)N[C@@H](CC(N)=O)C(=O)N[C@H](C(=O)N[C@H](C(=O)N[C@@H](CC(C)C)C(=O)N[C@@H](CC(=O)O)C(=O)N[C@@H](CC(N)=O)C(=O)N[C@@H](CC(C)C)C(=O)N[C@@H](C)C(=O)N[C@@H](C)C(=O)N[C@@H](CCCNC(=N)N)C(=O)N[C@@H](CC(=O)O)C(=O)N[C@@H](Cc1ccccc1)C(=O)N[C@H](C(=O)N[C@@H](CC(N)=O)C(=O)N[C@@H](Cc1c[nH]c2ccccc12)C(=O)N[C@@H](CC(C)C)C(=O)N[C@H](C(=O)N[C@@H](CCC(N)=O)C(=O)N[C@H](C(=O)N[C@@H](CCCCN)C(N)=O)[C@@H](C)O)[C@@H](C)CC)[C@@H](C)CC)[C@@H](C)CC)[C@@H](C)O (stereo partly specified)
- Ratio EC50 [2]: 73
- EC50 [3]: > 1000 nM
- Ratio EC50 (HEK293): > 62
- Activity [4]: inactive
- EC50 [5]: 16 nM

Molecule: CCCCC(NC(=O)[C@H](CCC(=O)O)NC(=O)[C@H](CC(=O)O)NC(=O)[C@H](CO)NC(=O)[C@H](Cc1ccccc1)NC(=O)[C@H](CO)NC(=O)CNC(=O)[C@H](CC(=O)O)NC(=O)CNC(=O)[C@@H](N)Cc1cnc[nH]1)C(=O)N[C@@H](CC(N)=O)C(=O)N[C@H](C(=O)N[C@H](C(=O)N[C@@H](CC(C)C)C(=O)N[C@@H](CC(=O)O)C(=O)N[C@H](CC(N)=O)C(=O)N[C@@H](CC(C)C)C(=O)N[C@@H](C)C(=O)N[C@@H](C)C(=O)N[C@@H](CCCNC(=N)N)C(=O)N[C@@H](CC(=O)O)C(=O)N[C@@H](Cc1ccccc1)C(=O)N[C@H](C(=O)N[C@@H](CC(N)=O)C(=O)N[C@@H](Cc1c[nH]c2ccccc12)C(=O)N[C@@H](CC(C)C)C(=O)N[C@H](C(=O)N[C@@H](CCC(N)=O)C(=O)N[C@H](C(=O)N[C@@H](CCCCN)C(N)=O)[C@@H](C)O)[C@@H](C)CC)[C@@H](C)CC)[C@@H](C)CC)[C@@H](C)O (stereo partly specified)
- Ratio EC50 [2]: 6.8
- EC50 [3]: > 1000 nM
- Ratio EC50 (HEK293): > 660
- Activity [4]: inactive
- EC50 [5]: 1.5 nM

Molecule: CCCCC(NC(=O)[C@H](CCC(=O)O)NC(=O)[C@H](CC(=O)O)NC(=O)[C@H](CO)NC(=O)[C@H](Cc1ccccc1)NC(=O)[C@H](CO)NC(=O)CNC(=O)[C@H](CC(=O)O)NC(=O)CNC(=O)[C@@H](N)Cc1cnc[nH]1)C(=O)N[C@@H](CC(N)=O)C(=O)N[C@H](C(=O)N[C@H](C(=O)N[C@H](CC(C)C)C(=O)N[C@@H](CC(=O)O)C(=O)N[C@@H](CC(N)=O)C(=O)N[C@@H](CC(C)C)C(=O)N[C@@H](C)C(=O)N[C@@H](C)C(=O)N[C@@H](CCCNC(=N)N)C(=O)N[C@@H](CC(=O)O)C(=O)N[C@@H](Cc1ccccc1)C(=O)N[C@H](C(=O)N[C@@H](CC(N)=O)C(=O)N[C@@H](Cc1c[nH]c2ccccc12)C(=O)N[C@@H](CC(C)C)C(=O)N[C@H](C(=O)N[C@@H](CCC(N)=O)C(=O)N[C@H](C(=O)N[C@@H](CCCCN)C(N)=O)[C@@H](C)O)[C@@H](C)CC)[C@@H](C)CC)[C@@H](C)CC)[C@@H](C)O (stereo partly specified)
- Ratio EC50 [2]: 40
- EC50 [3]: > 1000 nM
- Ratio EC50 (HEK293): > 110
- Activity [4]: inactive
- EC50 [5]: 8.9 nM

Molecule: CCCCC(NC(=O)[C@H](CCC(=O)O)NC(=O)[C@H](CC(=O)O)NC(=O)[C@H](CO)NC(=O)[C@H](Cc1ccccc1)NC(=O)[C@H](CO)NC(=O)CNC(=O)[C@H](CC(=O)O)NC(=O)CNC(=O)[C@@H](N)Cc1cnc[nH]1)C(=O)N[C@@H](CC(N)=O)C(=O)N[C@H](C(=O)N[C@@H](C(=O)N[C@@H](CC(C)C)C(=O)N[C@@H](CC(=O)O)C(=O)N[C@@H](CC(N)=O)C(=O)N[C@@H](CC(C)C)C(=O)N[C@@H](C)C(=O)N[C@@H](C)C(=O)N[C@@H](CCCNC(=N)N)C(=O)N[C@@H](CC(=O)O)C(=O)N[C@@H](Cc1ccccc1)C(=O)N[C@H](C(=O)N[C@@H](CC(N)=O)C(=O)N[C@@H](Cc1c[nH]c2ccccc12)C(=O)N[C@@H](CC(C)C)C(=O)N[C@H](C(=O)N[C@@H](CCC(N)=O)C(=O)N[C@H](C(=O)N[C@@H](CCCCN)C(N)=O)[C@@H](C)O)[C@@H](C)CC)[C@@H](C)CC)[C@H](C)CC)[C@@H](C)O (stereo partly specified)
- Ratio EC50 [2]: 1.6
- EC50 [3]: > 1000 nM
- Ratio EC50 (HEK293): > 2800
- Activity [4]: inactive
- EC50 [5]: 0.35 nM

Molecule: H-HGDGSFSDEMNTILDNLAARDFINWLIQTK-NH2
- clearance [6]: 20 mL/min/kg
- Ratio EC50 [2]: 2.4
- EC50 [3]: > 1000 nM
- Ratio EC50 (HEK293): > 4500
- EC50 [5]: 0.22 nM

Molecule: CCCCC(NC(=O)[C@H](CCC(=O)O)NC(=O)[C@H](CC(=O)O)NC(=O)[C@H](CO)NC(=O)[C@H](Cc1ccccc1)NC(=O)[C@H](CO)NC(=O)CNC(=O)[C@H](CC(=O)O)NC(=O)CNC(=O)[C@@H](N)Cc1cnc[nH]1)C(=O)N[C@@H](CC(N)=O)C(=O)N[C@H](C(=O)N[C@H](C(=O)N[C@@H](CC(C)C)C(=O)N[C@@H](CC(=O)O)C(=O)N[C@@H](CC(N)=O)C(=O)N[C@@H](CC(C)C)C(=O)N[C@@H](C)C(=O)N[C@@H](C)C(=O)N[C@@H](CCCNC(=N)N)C(=O)N[C@H](CC(=O)O)C(=O)N[C@@H](Cc1ccccc1)C(=O)N[C@H](C(=O)N[C@@H](CC(N)=O)C(=O)N[C@@H](Cc1c[nH]c2ccccc12)C(=O)N[C@@H](CC(C)C)C(=O)N[C@H](C(=O)N[C@@H](CCC(N)=O)C(=O)N[C@H](C(=O)N[C@@H](CCCCN)C(N)=O)[C@@H](C)O)[C@@H](C)CC)[C@@H](C)CC)[C@@H](C)CC)[C@@H](C)O (stereo partly specified)
- Ratio EC50 [2]: 2.1
- EC50 [3]: > 1000 nM
- Ratio EC50 (HEK293): > 2100
- Activity [4]: inactive
- EC50 [5]: 0.47 nM

Molecule: CCCCC(NC(=O)[C@H](CCC(=O)O)NC(=O)[C@H](CC(=O)O)NC(=O)[C@H](CO)NC(=O)[C@H](Cc1ccccc1)NC(=O)[C@H](CO)NC(=O)CNC(=O)[C@H](CC(=O)O)NC(=O)CNC(=O)[C@@H](N)Cc1cnc[nH]1)C(=O)N[C@@H](CC(N)=O)C(=O)N[C@H](C(=O)N[C@H](C(=O)N[C@@H](CC(C)C)C(=O)N[C@@H](CC(=O)O)C(=O)N[C@@H](CC(N)=O)C(=O)N[C@@H](CC(C)C)C(=O)N[C@@H](C)C(=O)N[C@H](C)C(=O)N[C@@H](CCCNC(=N)N)C(=O)N[C@@H](CC(=O)O)C(=O)N[C@@H](Cc1ccccc1)C(=O)N[C@H](C(=O)N[C@@H](CC(N)=O)C(=O)N[C@@H](Cc1c[nH]c2ccccc12)C(=O)N[C@@H](CC(C)C)C(=O)N[C@H](C(=O)N[C@@H](CCC(N)=O)C(=O)N[C@H](C(=O)N[C@@H](CCCCN)C(N)=O)[C@@H](C)O)[C@@H](C)CC)[C@@H](C)CC)[C@@H](C)CC)[C@@H](C)O (stereo partly specified)
- Ratio EC50 [2]: 64
- EC50 [3]: > 1000 nM
- Ratio EC50 (HEK293): > 71
- Activity [4]: inactive
- EC50 [5]: 14 nM
